# Like-named read-outs stand apart in the source and are kept apart here.
# Columns and labels:
# [1] = test system: HeLa cells; assay: Compound screen by flow cytometry: HeLa cell count as surrogate readout of cell viability (z-scoreHeLa); type: cell-based, human; settings: for cell count rep 1 / z-scoreHeLa rep 1: replicate 1; for cell count rep 2 / z-scoreHeLa rep 2: replicate 2; for cell count rep 3 / z-scoreHeLa rep 3: replicate 3; for z-scoreHeLa mean: mean of 3 replicates
# Outline: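 HeLa cells were infected with GFP-MRSA (mean MOI 6.8 ± 4.6) for 1 h, and extracellular bacteria were killed with 30 µg/ml gentamicin. Cells were then incubated overnight with kinase inhibitors in 5 µg/ml gentamicin, in triplicate against DMSO controls. Flow-cytometric cell count served as a viability surrogate, expressed as a plate z-score.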
# [2] = test system: intracellular MRSA; type: cell-based, Staphylococcus aureus; settings: for %GFP+ rep 1 / z-scoreMRSA+ rep 1: replicate 1; for %GFP+ rep 2 / z-scoreMRSA+ rep 2: replicate 2; for %GFP+ rep 3 / z-scoreMRSA+ rep 3: replicate 3; for z-scoreMRSA+ mean: mean of 3 replicates
# Outline: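 HeLa, MRSA-GFP at MOI ~6.8, 1 h infection; gentamicin 30 µg/ml for 15 min; inhibitor plus gentamicin 5 µg/ml overnight, 37°C/5% CO2; triplicate plates; FACS %GFP+ and cell count; hit = z ≤ -2 MRSA+, z ≥ -3 count.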
# [3] = PKIS compounds raw data, HeLa cell count
# [4] = compound screen, HeLa cell count
# [5] = PKIS compounds raw data, MRSA-infected HeLa cells
# [6] = Yes/No: effect without cell death
# [7] = compound screen, MRSA-infected HeLa cells
# [8] = PKIS compound screen raw data, HeLa cell count
# [9] = PKIS compound screen, HeLa cell count
# [10] = PKIS compound screen, Yes/No call on z-scoreHeLa
# [11] = PKIS compound screen raw data, MRSA-infected HeLa cells
# [12] = PKIS compound screen, MRSA-infected HeLa cells
# [13] = PKIS compound screen, Yes/No call (effect without cell death)
# [14] = PKIS compound screen, Yes/No call on z-scoreMRSA+
# [15] = PKIS compound screen, Yes/No call
Compound,"cell count rep 1 [1, 3]","cell count rep 2 [1, 3]","cell count rep 3 [1, 3]","cell count rep 1 [1, 8]","cell count rep 2 [1, 8]","cell count rep 3 [1, 8]","z-scoreHeLa mean [1, 9]","z-scoreHeLa rep 1 [1, 9]","z-scoreHeLa rep 2 [1, 9]","z-scoreHeLa rep 3 [1, 9]","cell death [1, 10]","%GFP+ rep 1 [2, 11] [%]","%GFP+ rep 2 [2, 11] [%]","%GFP+ rep 3 [2, 11] [%]","z-scoreMRSA+ mean [2, 12]","z-scoreMRSA+ rep 1 [2, 12]","z-scoreMRSA+ rep 2 [2, 12]","z-scoreMRSA+ rep 3 [2, 12]","hit [2, 13]","effect [2, 14]",further results
Cl.Cl.Cl.Fc1ccc(-c2ncn(C3CCNCC3)c2-c2ccnc(Nc3ccccc3)n2)cc1 [SB-238039-R],1720,1088,3178,–,–,–,–,–,–,–,–,–,–,–,–,–,–,–,–,–,"cell death ([1]; Yes/No call from z-scoreHeLa): No; z-scoreHeLa mean [1, 4]: -2.33; z-scoreHeLa rep 1 [1, 4]: -2.76; z-scoreHeLa rep 2 [1, 4]: -2.40; z-scoreHeLa rep 3 [1, 4]: -1.81; %GFP+ rep 1 [2, 5]: 7.4%; %GFP+ rep 2 [2, 5]: 6.7%; %GFP+ rep 3 [2, 5]: 6.5%; effect ([2]; Yes/No call from z-scoreMRSA+): Yes; hit [2, 6]: Yes; z-scoreMRSA+ mean [2, 7]: -2.31; z-scoreMRSA+ rep 1 [2, 7]: -1.86; z-scoreMRSA+ rep 2 [2, 7]: -2.29; z-scoreMRSA+ rep 3 [2, 7]: -2.78"
Cc1c(Cn2ccn3c(=O)cc(N4CCOCC4)nc23)cccc1C(F)(F)F [GSK2289044B],–,–,–,23358,26653,34666,-0.65,0.49,-1.52,-0.93,No,13.5,15.4,14.7,-1.29,-1.38,-0.94,-1.55,No,No,–
CC(C(=O)NC1CCN(c2ccnc(Nc3ccc(F)cc3)n2)C1)c1ccc(Cl)cc1 (stereo not shown) [GSK1379713A],–,–,–,6297,5528,7616,–,–,–,–,–,27.3,23.1,24.4,–,–,–,–,–,–,"cell death ([1]; Yes/No call from z-scoreHeLa): No; z-scoreHeLa mean [1, 4]: 1.28; z-scoreHeLa rep 1 [1, 4]: 1.40; z-scoreHeLa rep 2 [1, 4]: 0.94; z-scoreHeLa rep 3 [1, 4]: 1.50; effect ([2]; Yes/No call from z-scoreMRSA+): No; hit [2, 6]: No; z-scoreMRSA+ mean [2, 7]: 0.42; z-scoreMRSA+ rep 1 [2, 7]: 0.47; z-scoreMRSA+ rep 2 [2, 7]: 0.12; z-scoreMRSA+ rep 3 [2, 7]: 0.66"
O=C1Nc2ccc(C(=O)c3ccco3)cc2C1=Cc1cc(Cl)c(O)c(Cl)c1 [GW406108X],–,–,–,28408,39603,51964,1.33,1.26,0.90,1.82,No,19.1,21.6,22.3,0.69,0.39,0.93,0.76,No,No,–
Cc1nnc(-c2ccc(C)c(-c3ccc(C(=O)NCc4ccc(Cl)cc4)cc3)c2)o1 [GW708893X],5153,5899,7607,–,–,–,–,–,–,–,–,–,–,–,–,–,–,–,No,–,"cell death [1, 15]: No; z-scoreHeLa mean ([1]; PKIS compound screen): 0.63; z-scoreHeLa rep 1 ([1]; PKIS compound screen): 0.34; z-scoreHeLa rep 2 ([1]; PKIS compound screen): 1.23; z-scoreHeLa rep 3 ([1]; PKIS compound screen): 0.31; effect [2, 15]: No; z-scoreMRSA+ mean ([2]; PKIS compound screen): 0.76; z-scoreMRSA+ rep 1 ([2]; PKIS compound screen): 0.91; z-scoreMRSA+ rep 2 ([2]; PKIS compound screen): 1.61; z-scoreMRSA+ rep 3 ([2]; PKIS compound screen): -0.23; %GFP+ rep 1 [2, 5]: 16.0%; %GFP+ rep 2 [2, 5]: 18.3%; %GFP+ rep 3 [2, 5]: 15.1%"
CCCNC(=O)Nc1ccc(N(C)c2ccnc(NC3CC3)n2)cc1 [GW818933X],6971,6954,6744,29169,27486,16622,-0.08,-0.17,0.38,-0.45,No,16.2,17.1,17.2,-0.81,-0.69,-0.63,-1.10,No,No,"cell death [1, 15]: No; z-scoreHeLa mean ([1]; PKIS compound screen): 0.64; z-scoreHeLa rep 1 ([1]; PKIS compound screen): 0.56; z-scoreHeLa rep 2 ([1]; PKIS compound screen): 0.63; z-scoreHeLa rep 3 ([1]; PKIS compound screen): 0.73; effect [2, 15]: No; z-scoreMRSA+ mean ([2]; PKIS compound screen): 0.11; z-scoreMRSA+ rep 1 ([2]; PKIS compound screen): 0.16; z-scoreMRSA+ rep 2 ([2]; PKIS compound screen): 0.22; z-scoreMRSA+ rep 3 ([2]; PKIS compound screen): -0.07; %GFP+ rep 1 [2, 5]: 27.9%; %GFP+ rep 2 [2, 5]: 27.2%; %GFP+ rep 3 [2, 5]: 26.9%"
CS(=O)(=O)CCNCc1cc(-c2cc3c(Nc4ccc(OCc5cccc(F)c5)c(Cl)c4)ncnc3s2)cs1 [GSK300014A],–,–,–,28943,38150,46044,0.95,1.34,0.63,0.88,No,19.5,21.9,21.6,0.70,0.52,1.02,0.55,No,No,–
c1ccc(Oc2ccc(Nc3ccnc4cc(-c5ccc(CN6CCNCC6)o5)ccc34)cc2)nc1 [GW567142A],–,–,–,37910,29813,27656,1.26,1.31,0.78,1.70,No,18.2,19.4,17.4,-0.40,-0.15,-0.00228,-1.05,No,No,–
Cc1cc(N2Cc3ccccc3C2)nc(Nc2ccc(S(=O)(=O)N3CCOCC3)cc2)n1 [GSK1669917A],–,–,–,5559,4564,5979,–,–,–,–,–,24.7,22.0,22.0,–,–,–,–,–,–,"cell death ([1]; Yes/No call from z-scoreHeLa): No; z-scoreHeLa mean [1, 4]: 0.51; z-scoreHeLa rep 1 [1, 4]: 0.87; z-scoreHeLa rep 2 [1, 4]: 0.20; z-scoreHeLa rep 3 [1, 4]: 0.47; effect ([2]; Yes/No call from z-scoreMRSA+): No; hit [2, 6]: No; z-scoreMRSA+ mean [2, 7]: -0.11; z-scoreMRSA+ rep 1 [2, 7]: -0.13; z-scoreMRSA+ rep 2 [2, 7]: -0.15; z-scoreMRSA+ rep 3 [2, 7]: -0.06"
CC(C)c1ccc2c(c1)NC(=O)C2=NNc1ccc(S(N)(=O)=O)cc1 [GW300653X],3693,3535,5783,–,–,–,–,–,–,–,–,–,–,–,–,–,–,–,–,–,"cell death ([1]; Yes/No call from z-scoreHeLa): No; z-scoreHeLa mean [1, 4]: -0.70; z-scoreHeLa rep 1 [1, 4]: -0.98; z-scoreHeLa rep 2 [1, 4]: -0.55; z-scoreHeLa rep 3 [1, 4]: -0.56; %GFP+ rep 1 [2, 5]: 12.5%; %GFP+ rep 2 [2, 5]: 13.7%; %GFP+ rep 3 [2, 5]: 13.3%; effect ([2]; Yes/No call from z-scoreMRSA+): No; hit [2, 6]: No; z-scoreMRSA+ mean [2, 7]: -0.30; z-scoreMRSA+ rep 1 [2, 7]: -0.21; z-scoreMRSA+ rep 2 [2, 7]: 0.07; z-scoreMRSA+ rep 3 [2, 7]: -0.77"
COc1cc2nccc(Nc3cccc(Oc4ccccc4)c3)c2cc1OC [GW284543A],–,–,–,34308,33464,39414,0.58,2.15,-0.25,-0.18,No,19.7,21.7,21.6,0.70,0.58,0.96,0.55,No,No,–
CN(c1ccc2c(c1)nc(NCc1ccc(F)cc1)n2C)c1ccnc(Nc2ccc(CS(C)(=O)=O)cc2)n1 [GW813244A],–,–,–,29228,26803,36349,-0.26,1.38,-1.49,-0.67,No,19.9,20.6,22.3,0.68,0.65,0.62,0.76,No,No,–

# From article PMC10999543, “Identification of kinase modulators as host-directed therapeutics against intracellular methicillin-resistant Staphylococcus aureus” (Frontiers in Cellular and Infection Microbiology, 2024)
